Experimental data reported in patent publication US20190375708A1 (VenatoRx Pharmaceuticals, Inc., priority 2018, published 2019).

Experiments:
[1] = test system: HBV replication in HepAD38 cells; assay: Anti-HBV replication assay in HepAD38 cells (QPCR of extracellular HBV DNA); type: cell-based, HBV (genotype D, serotype ayw); details: Hepatitis B virus, 168 h, 7 days incubation, extracellular HBV DNA by QPCR, read-out: Anti-HBV EC50
Outline: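 EC50 values reflect 50% reduction of extracellular HBV DNA, measured by QPCR after 7-day treatment of tetracycline-deprived HepAD38 cells with compound […].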

[2] = In vitro cytotoxicity assay (MTT cell viability) in HepG2 cells; type: cell-based, human; details: human
Outline: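 Using MTT conversion as the viability measure, HepG2 cells were incubated with compounds for 7 days (30 μM to 1.0 nM). Absorbance at 492 nm was normalized to vehicle and fitted to give CC50.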

## CC(C)(C)NC(=O)C(=O)c1cc(C(=O)Nc2ccc(F)c(C#N)c2)c2n1CCOC2 [Example 582, 6-(2-(tert-butylamino)-2-oxoacetyl)-N-(3-cyano-4-fluorophenyl)-3,4-dihydro-1H-pyrrolo[2,1-c][1,4]oxazine-8-carboxamide]
[1]
  EC50: > 1000 nM
[2]
  CC50 at 7 days: > 30000 nM

## CC[C@H](CO)NC(=O)C(=O)c1c(C)c(C(=O)Nc2ccc(F)c(C)c2)c(C)n1C [Example 140, (R)-N-(4-fluoro-3-methylphenyl)-5-(2-((1-hydroxybutan-2-yl)amino)-2-oxoacetyl)-1,2,4-trimethyl-1H-pyrrole-3-carboxamide]
[1]
  EC50: < 50 nM
[2]
  CC50 at 7 days: > 30000 nM

## Cc1cc(NC(=O)c2c(C)c(C(=O)C(=O)N[C@H](C)CCO)n(C)c2C)ccc1F [Example 141, (R)-N-(4-fluoro-3-methylphenyl)-5-(2-((4-hydroxybutan-2-yl)amino)-2-oxoacetyl)-1,2,4-trimethyl-1H-pyrrole-3-carboxamide]
[1]
  EC50: < 50 nM
[2]
  CC50 at 7 days: > 30000 nM

## Cc1cc(NC(=O)c2c(Cl)c(C(=O)C(=O)NCC(C)(C)CO)n3c2CCC3)cnc1F [Example 577, 6-chloro-N-(6-fluoro-5-methylpyridin-3-yl)-5-(2-((3-hydroxy-2,2-dimethylpropyl)amino)-2-oxoacetyl)-2,3-dihydro-1H-pyrrolizine-7-carboxamide]
[1]
  EC50: > 1000 nM
[2]
  CC50 at 7 days: > 30000 nM

## Cc1c(C(=O)Nc2cc(F)c(F)c(F)c2)c(C)n(C)c1C(=O)C(=O)Nc1ccc(F)c(F)c1 [Example 322, 5-(2-((3,4-difluorophenyl)amino)-2-oxoacetyl)-1,2,4-trimethyl-N-(3,4,5-trifluorophenyl)-1H-pyrrole-3-carboxamide]
[1]
  EC50: < 50 nM
[2]
  CC50 at 7 days: 5000 to 30000 nM

## CC(C)(CO)NC(=O)C(=O)c1c(Cl)c(C(=O)Nc2ccnc(F)c2)c2n1CCCC2 [Example 512, 2-chloro-N-(2-fluoropyridin-4-yl)-3-(2-((1-hydroxy-2-methylpropan-2-yl)amino)-2-oxoacetyl)-5,6,7,8-tetrahydroindolizine-1-carboxamide]
[1]
  EC50: 500 to 1000 nM
[2]
  CC50 at 7 days: > 30000 nM

## Cc1c(C(=O)NC2CCCC2)c2n(c1C(=O)C(=O)NC1(CO)CCC1)CCCC2 [Example 746, N-cyclopentyl-3-(2-((1-(hydroxymethyl)cyclobutyl)amino)-2-oxoacetyl)-2-methyl-5,6,7,8-tetrahydroindolizine-1-carboxamide]
[1]
  EC50: 50 to 499 nM
[2]
  CC50 at 7 days: > 30000 nM

## Cc1cc(NC(=O)c2c(C)c(C(=O)C(=O)NC34CC5CC(CC(O)(C5)C3)C4)n(CCO)c2C)ccc1F [Example 73, N-(4-fluoro-3-methylphenyl)-5-(2-(((1r,3s,5R,7S)-3-hydroxyadamantan-1-yl)amino)-2-oxoacetyl)-1-(2-hydroxyethyl)-2,4-dimethyl-1H-pyrrole-3-carboxamide]
[1]
  EC50: > 1000 nM
[2]
  CC50 at 7 days: > 30000 nM

## Cc1c(C(=O)NC2CCC(F)(F)C2)c2n(c1C(=O)C(=O)NC(C)(C)CO)CCCC2 (stereo not drawn) [Example 752, N-(3,3-difluorocyclopentyl)-3-(2-((1-hydroxy-2-methylpropan-2-yl)amino)-2-oxoacetyl)-2-methyl-5,6,7,8-tetrahydroindolizine-1-carboxamide]
[1]
  EC50: 50 to 499 nM
[2]
  CC50 at 7 days: > 30000 nM

## Cc1cc(NC(=O)c2c(C)c(C(=O)C(=O)NCC(O)c3ccsc3)n(C)c2C)ccc1F (stereo not drawn) [Example 648, N-(4-fluoro-3-methylphenyl)-5-(2-((2-hydroxy-22-(thiophen-3-yl)ethyl)amino)-2-oxoacetyl)-1,2,4-trimethyl-1H-pyrrole-3-carboxamide]
[1]
  EC50: < 50 nM
[2]
  CC50 at 7 days: > 30000 nM

## Cc1cc(NC(=O)c2c(Cl)c(C(=O)C(=O)N[C@H](C)C(F)(F)F)n3c2CCCC3)cnc1F [Example 732]
[1]
  EC50: 50 to 499 nM
[2]
  CC50 at 7 days: > 30000 nM

## CC(C)(CO)CNC(=O)C(=O)c1c(Cl)c(C(=O)Nc2ccnc(F)c2)c2n1CCCC2 [Example 526, 2-chloro-N-(2-fluoropyridin-4-yl)-3-(2-((3-hydroxy-2,2-dimethylpropyl)amino)-2-oxoacetyl)-5,6,7,8-tetrahydroindolizine-1-carboxamide]
[1]
  EC50: > 1000 nM
[2]
  CC50 at 7 days: > 30000 nM

## Cc1noc(C2(NC(=O)C(=O)c3c(C)c(C(=O)Nc4cnc(F)c(C)c4)c(C)n3C)CC2)n1 [Example 160, N-(6-fluoro-5-methylpyridin-3-yl)-1,2,4-trimethyl-5-(2-((1-(3-methyl-1,2,4-oxadiazol-5-yl)cyclopropyl)amino)-2-oxoacetyl)-1H-pyrrole-3-carboxamide]
[1]
  EC50: 50 to 499 nM
[2]
  CC50 at 7 days: > 30000 nM

## Cc1c(C(=O)Nc2ccc(F)nc2)c(C)n(C)c1C(=O)C(=O)N[C@]1(C)CC[C@H](O)CC1 [Example 240, N-(6-fluoropyridin-3-yl)-5-(2-(((1s,4s)-4-hydroxy-1-methylcyclohexyl)amino)-2-oxoacetyl)-1,2,4-trimethyl-1H-pyrrole-3-carboxmaide]
[1]
  EC50: 50 to 499 nM
[2]
  CC50 at 7 days: > 30000 nM

## Cc1cc(NC(=O)c2c(Cl)c(C(=O)C(=O)NC3(CO)CC(F)(F)C3)n3c2CCCC3)cnc1F [Example 507, 2-chloro-3-(2-((3,3-difluoro-1-(hydroxymethyl)cyclobutyl)amino)-2-oxoacetyl)-N-(6-fluoro-5-methylpyridin-3-yl)-5,6,7,8-tetrahydroindolizine-1-carboxamide]
[1]
  EC50: 50 to 499 nM
[2]
  CC50 at 7 days: > 30000 nM

## Cc1cc(NC(=O)c2c(C)c(C(=O)C(=O)NCC(C)(C)O)n(CCF)c2C)ccc1F [Example 178, N-(4-fluoro-3-methylphenyl)-1-(2-fluoroethyl)-5-(2-((2-hydroxy-2-methylpropyl)amino)-2-oxoacetyl)-2,4-dimethyl-1H-pyrrole-3-carboxamide]
[1]
  EC50: 50 to 499 nM
[2]
  CC50 at 7 days: 5000 to 30000 nM

## Cc1c(C(=O)Nc2ccnc(Cl)c2)c(C)n(C)c1C(=O)C(=O)N[C@H]1CC[C@@H](O)CC1 [Example 252, N-(2-chloropyridin-4-yl)-5-(2-(((1s,4s)-4-hydroxycyclohexyl)amino)-2-oxoacetyl)-1,2,4-trimethyl-1H-pyrrole-3-carboxamide]
[1]
  EC50: 50 to 499 nM
[2]
  CC50 at 7 days: > 30000 nM

## Cc1cc(NC(=O)c2c(C)c(C(=O)C(=O)NCC(C)(C)O)n3c2CCCC3)ccc1F [Example 444, N-(4-fluoro-3-methylphenyl)-3-(2-((2-hydroxy-2-methylpropyl)amino)-2-oxoacetyl)-2-methyl-5,6,7,8-tetrahydroindolizine-1-carboxamide]
[1]
  EC50: < 50 nM
[2]
  CC50 at 7 days: 5000 to 30000 nM

## Cc1cc(NC(=O)c2c(C)c(C(=O)C(=O)N[C@H](C(=O)O)[C@@H](C)O)n(C)c2C)ccc1F [Example 34, (2-(4-((4-fluoro-3-methylphenyl)carbamoyl)-1,3,5-trimethyl-1H-pyrrol-2-yl)-2-oxoacetyl)-L-threonine]
[1]
  EC50: > 1000 nM
[2]
  CC50 at 7 days: > 30000 nM

## Cc1c(C(=O)Nc2ccnc(Cl)c2)c(C)n(C)c1C(=O)C(=O)NC1(C)CCOCC1 [Example 326, N-(2-chloropyridin-4-yl)-1,2,4-trimethyl-5-(2-((4-methyltetrahydro-2H-pyran-4-yl)amino)-2-oxoacetyl)-1H-pyrrole-3-carboxamide]
[1]
  EC50: < 50 nM
[2]
  CC50 at 7 days: > 30000 nM

## CC(C)(O)CNC(=O)C(=O)c1c(Cl)c(C(=O)Nc2ccc(F)c(F)c2)c2n1CCCC2 [Example 534, 2-chloro-N-(3,4-difluorophenyl)-3-(2-((2-hydroxy-2-methylpropyl)amino)-2-oxoacetyl)-5,6,7,8-tetrahydroindolizine--1 carboxamide]
[1]
  EC50: 50 to 499 nM
[2]
  CC50 at 7 days: 5000 to 30000 nM

## Cc1cc(NC(=O)c2c(C)c(C(=O)C(=O)NCC(=O)N3CCOCC3)n(C)c2C)ccc1F [Example 299, N-(4-fluoro-3-methylphenyl)-1,2,4-trimethyl-5-(2-((2-morpholino-2-oxoethyl)amino)-2-oxoacetyl)-1H-pyrrole-3-carboxamide]
[1]
  EC50: 50 to 499 nM
[2]
  CC50 at 7 days: > 30000 nM

## Cc1cc(NC(=O)c2c(C)c(C(=O)C(=O)NC3CCNC(=O)C3)n(C)c2C)ccc1F (stereo not drawn) [Example 286, N-(4-fluoro-3-methylphenyl)-1,2,4-trimethyl-5-(2-oxo-2-((2-oxopiperidin-4-yl)amino)acetyl)-1H-pyrrole-3-carboxamide]
[1]
  EC50: < 50 nM
[2]
  CC50 at 7 days: > 30000 nM

## Cc1c(C(=O)Nc2ccc(F)c(Cl)c2)c2n(c1C(=O)C(=O)N[C@H]1COC[C@@H]1O)CCCC2 [Example 450, N-(3-chloro-4-fluorophenyl)-3-(2-(((3S,4R)-4-hydroxytetrahydrofuran-3-yl)amino)-2-oxoacetyl)-2-methyl-5,6,7,8-tetrahydroindolizine-1-carboxamide]
[1]
  EC50: 50 to 499 nM
[2]
  CC50 at 7 days: > 30000 nM

## Cc1c(C(=O)Nc2ccc(F)c(F)c2)c(C)n(C)c1C(=O)C(=O)Nc1cccnc1 [Example 296, N-(3,4-difluorophenyl)-1,2,4-trimethyl-5-(2-oxo-2-(pyridin-3-ylamino)acetyl)-1H-pyrrole-3-carboxamide]
[1]
  EC50: < 50 nM
[2]
  CC50 at 7 days: > 30000 nM

## Cc1c(C(=O)Nc2cc(F)c(F)c(F)c2)c(Cl)c(C(=O)C(=O)NC(C)(C)C)n1C [Example 369, 5-(2-(tert-butylamino)-2-oxoacetyl)-4-chloro-1,2-dimethyl-N-(3,4,5-trifluorophenyl)-1H-pyrrole-3-carboxamide]
[1]
  EC50: < 50 nM
[2]
  CC50 at 7 days: > 30000 nM

## Cc1noc([C@@H](C)NC(=O)C(=O)c2c(Cl)c(C(=O)Nc3cnc(F)c(C)c3)c3n2CCC3)n1 [Example 735, (R)-6-chloro-N-(6-fluoro-5-methylpyridin-3-yl)-5-(2-((1-(3-methyl-1,2,4-oxxadiazol-5-yl)ethyl)amino)-2-oxoacetyl)-2,3-dihydro-1H-pyrrolizine-7-carboxamide]
[1]
  EC50: 50 to 499 nM
[2]
  CC50 at 7 days: 5000 to 30000 nM
